# Test system: P. falciparum Dd2 strain
# Assay type: cell-based, Plasmodium falciparum
# Conditions: single dose, 72 h in vitro treatment; Fig. 1B; normalized to non-treated cultures
substance,measurement,value
poly-L-glutamate,parasite growth inhibition (in words),parasite growth inhibition was not observed

# From paper PMC11295857 (Malaria Journal, 2024)
